Counter-ions that a name gives are not always drawn. Positions of bridges follow the written chain, without caps; N, C: chain ends. Non-standard residues stand in square brackets, D forms with d. Residues, ends and D or L forms follow the SMILES beside them. Orn = NCCC[C@H](N)C(=O)O; Mpa = O=C(O)CCS

The target in experiment [1] is ATP-binding cassette sub-family C member 2 (Homo sapiens, UniProt Q92887). The experiment is described as follows: Inhibition of human MRP2 overexpressed in Sf9 cell membrane vesicles assessed as uptake of [3H]-estradiol-17beta-D-glucuronide in presence of ATP and GSH measured after 20 mins by membrane vesicle transport assay.
For experiment [2], the target named is ATP-binding cassette sub-family C member 3 (Homo sapiens, UniProt O15438). The experiment is described as follows: Inhibition of human MRP3 overexpressed in Sf9 insect cell membrane vesicles assessed as uptake of [3H]-estradiol-17beta-D-glucuronide in presence of ATP and GSH measured after 10 mins by membrane vesicle transport assay. The experiment is classed as ADME, cell-based.

Experiment [3] deals with T1, ATP-binding cassette sub-family C member 4 (Homo sapiens, UniProt O15439).
T1 sequence (O15439 whole entry): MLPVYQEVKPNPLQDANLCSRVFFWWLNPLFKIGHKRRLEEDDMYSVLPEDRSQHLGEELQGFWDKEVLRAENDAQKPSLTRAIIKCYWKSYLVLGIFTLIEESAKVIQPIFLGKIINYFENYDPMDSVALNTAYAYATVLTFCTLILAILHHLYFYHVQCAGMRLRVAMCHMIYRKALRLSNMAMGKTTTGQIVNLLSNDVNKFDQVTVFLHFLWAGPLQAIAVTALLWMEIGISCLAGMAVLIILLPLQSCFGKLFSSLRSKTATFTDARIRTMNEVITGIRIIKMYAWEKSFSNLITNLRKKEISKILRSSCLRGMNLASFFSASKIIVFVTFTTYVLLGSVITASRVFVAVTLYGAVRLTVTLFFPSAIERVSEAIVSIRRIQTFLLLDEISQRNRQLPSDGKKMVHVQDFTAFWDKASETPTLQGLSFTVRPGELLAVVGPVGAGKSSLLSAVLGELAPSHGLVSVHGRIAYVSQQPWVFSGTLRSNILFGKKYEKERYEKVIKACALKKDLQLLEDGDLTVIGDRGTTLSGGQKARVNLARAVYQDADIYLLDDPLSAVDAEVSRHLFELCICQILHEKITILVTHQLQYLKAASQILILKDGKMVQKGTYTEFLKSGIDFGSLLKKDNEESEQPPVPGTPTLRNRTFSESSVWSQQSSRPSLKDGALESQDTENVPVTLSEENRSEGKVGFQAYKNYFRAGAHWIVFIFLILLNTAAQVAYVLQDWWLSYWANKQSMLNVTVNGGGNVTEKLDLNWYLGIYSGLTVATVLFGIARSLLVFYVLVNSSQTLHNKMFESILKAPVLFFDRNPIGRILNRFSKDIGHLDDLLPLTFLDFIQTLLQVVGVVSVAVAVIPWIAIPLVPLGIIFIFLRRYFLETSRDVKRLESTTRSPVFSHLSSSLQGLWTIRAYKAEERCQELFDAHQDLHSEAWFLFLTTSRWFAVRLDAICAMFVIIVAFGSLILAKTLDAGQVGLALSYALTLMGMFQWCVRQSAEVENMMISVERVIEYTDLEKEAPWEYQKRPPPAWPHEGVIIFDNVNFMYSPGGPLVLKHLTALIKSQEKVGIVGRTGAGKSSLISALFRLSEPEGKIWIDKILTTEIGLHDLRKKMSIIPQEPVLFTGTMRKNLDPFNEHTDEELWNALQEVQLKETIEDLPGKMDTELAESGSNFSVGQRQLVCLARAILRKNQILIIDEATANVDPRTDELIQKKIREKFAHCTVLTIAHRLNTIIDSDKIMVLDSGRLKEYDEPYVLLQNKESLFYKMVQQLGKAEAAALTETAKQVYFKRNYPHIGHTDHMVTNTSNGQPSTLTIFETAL
In words: Inhibition of human MRP4 overexpressed in Sf9 cell membrane vesicles assessed as uptake of [3H]-estradiol-17beta-D-glucuronide in presence of ATP and GSH measured after 20 mins by membrane vesicle transport assay. The experiment is classed as ADME, cell-based.

The target of another experiment is Bile salt export pump (Homo sapiens, UniProt O95342). In words: Inhibition of human BSEP overexpressed in Sf9 cell membrane vesicles assessed as uptake of [3H]-taurocholate in presence of ATP measured after 15 to 20 mins by membrane vesicle transport assay. The experiment is classed as ADME, cell-based.
Sequence of Bile salt export pump (O95342 whole entry): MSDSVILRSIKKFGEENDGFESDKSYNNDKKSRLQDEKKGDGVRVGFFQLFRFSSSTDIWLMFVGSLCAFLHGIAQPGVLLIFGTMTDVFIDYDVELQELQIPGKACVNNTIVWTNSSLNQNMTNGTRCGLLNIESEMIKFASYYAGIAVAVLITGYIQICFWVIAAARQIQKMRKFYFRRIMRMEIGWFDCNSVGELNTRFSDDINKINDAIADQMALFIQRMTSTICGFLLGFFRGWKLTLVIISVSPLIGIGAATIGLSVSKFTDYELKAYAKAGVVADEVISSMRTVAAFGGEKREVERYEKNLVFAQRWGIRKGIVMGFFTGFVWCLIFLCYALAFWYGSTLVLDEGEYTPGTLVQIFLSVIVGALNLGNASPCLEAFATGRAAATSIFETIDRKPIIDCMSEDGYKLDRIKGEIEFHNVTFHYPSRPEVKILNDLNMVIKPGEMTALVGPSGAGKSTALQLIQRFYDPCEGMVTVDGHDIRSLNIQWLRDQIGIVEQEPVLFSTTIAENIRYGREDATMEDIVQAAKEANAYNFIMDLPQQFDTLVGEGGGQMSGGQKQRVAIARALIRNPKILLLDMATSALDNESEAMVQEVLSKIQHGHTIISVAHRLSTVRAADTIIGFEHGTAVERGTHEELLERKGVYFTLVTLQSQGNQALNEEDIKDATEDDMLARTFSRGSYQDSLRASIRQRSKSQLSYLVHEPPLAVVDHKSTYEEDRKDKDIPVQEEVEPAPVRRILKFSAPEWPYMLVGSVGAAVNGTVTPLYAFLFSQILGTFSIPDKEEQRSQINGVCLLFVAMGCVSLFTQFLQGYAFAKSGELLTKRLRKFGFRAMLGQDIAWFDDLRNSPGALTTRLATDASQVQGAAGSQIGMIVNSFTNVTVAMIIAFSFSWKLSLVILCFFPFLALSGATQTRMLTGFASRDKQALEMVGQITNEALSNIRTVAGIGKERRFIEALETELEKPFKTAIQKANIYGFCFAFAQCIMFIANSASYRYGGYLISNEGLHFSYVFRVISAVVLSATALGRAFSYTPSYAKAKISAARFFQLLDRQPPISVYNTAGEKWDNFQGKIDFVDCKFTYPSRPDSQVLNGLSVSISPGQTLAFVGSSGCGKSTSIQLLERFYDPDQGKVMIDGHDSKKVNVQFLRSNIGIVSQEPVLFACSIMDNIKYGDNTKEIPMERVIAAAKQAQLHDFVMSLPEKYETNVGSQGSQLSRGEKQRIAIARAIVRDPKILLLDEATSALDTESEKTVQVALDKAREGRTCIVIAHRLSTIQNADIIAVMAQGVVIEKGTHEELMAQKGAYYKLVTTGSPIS

Sequence of ATP-binding cassette sub-family C member 3 (O15438 whole entry): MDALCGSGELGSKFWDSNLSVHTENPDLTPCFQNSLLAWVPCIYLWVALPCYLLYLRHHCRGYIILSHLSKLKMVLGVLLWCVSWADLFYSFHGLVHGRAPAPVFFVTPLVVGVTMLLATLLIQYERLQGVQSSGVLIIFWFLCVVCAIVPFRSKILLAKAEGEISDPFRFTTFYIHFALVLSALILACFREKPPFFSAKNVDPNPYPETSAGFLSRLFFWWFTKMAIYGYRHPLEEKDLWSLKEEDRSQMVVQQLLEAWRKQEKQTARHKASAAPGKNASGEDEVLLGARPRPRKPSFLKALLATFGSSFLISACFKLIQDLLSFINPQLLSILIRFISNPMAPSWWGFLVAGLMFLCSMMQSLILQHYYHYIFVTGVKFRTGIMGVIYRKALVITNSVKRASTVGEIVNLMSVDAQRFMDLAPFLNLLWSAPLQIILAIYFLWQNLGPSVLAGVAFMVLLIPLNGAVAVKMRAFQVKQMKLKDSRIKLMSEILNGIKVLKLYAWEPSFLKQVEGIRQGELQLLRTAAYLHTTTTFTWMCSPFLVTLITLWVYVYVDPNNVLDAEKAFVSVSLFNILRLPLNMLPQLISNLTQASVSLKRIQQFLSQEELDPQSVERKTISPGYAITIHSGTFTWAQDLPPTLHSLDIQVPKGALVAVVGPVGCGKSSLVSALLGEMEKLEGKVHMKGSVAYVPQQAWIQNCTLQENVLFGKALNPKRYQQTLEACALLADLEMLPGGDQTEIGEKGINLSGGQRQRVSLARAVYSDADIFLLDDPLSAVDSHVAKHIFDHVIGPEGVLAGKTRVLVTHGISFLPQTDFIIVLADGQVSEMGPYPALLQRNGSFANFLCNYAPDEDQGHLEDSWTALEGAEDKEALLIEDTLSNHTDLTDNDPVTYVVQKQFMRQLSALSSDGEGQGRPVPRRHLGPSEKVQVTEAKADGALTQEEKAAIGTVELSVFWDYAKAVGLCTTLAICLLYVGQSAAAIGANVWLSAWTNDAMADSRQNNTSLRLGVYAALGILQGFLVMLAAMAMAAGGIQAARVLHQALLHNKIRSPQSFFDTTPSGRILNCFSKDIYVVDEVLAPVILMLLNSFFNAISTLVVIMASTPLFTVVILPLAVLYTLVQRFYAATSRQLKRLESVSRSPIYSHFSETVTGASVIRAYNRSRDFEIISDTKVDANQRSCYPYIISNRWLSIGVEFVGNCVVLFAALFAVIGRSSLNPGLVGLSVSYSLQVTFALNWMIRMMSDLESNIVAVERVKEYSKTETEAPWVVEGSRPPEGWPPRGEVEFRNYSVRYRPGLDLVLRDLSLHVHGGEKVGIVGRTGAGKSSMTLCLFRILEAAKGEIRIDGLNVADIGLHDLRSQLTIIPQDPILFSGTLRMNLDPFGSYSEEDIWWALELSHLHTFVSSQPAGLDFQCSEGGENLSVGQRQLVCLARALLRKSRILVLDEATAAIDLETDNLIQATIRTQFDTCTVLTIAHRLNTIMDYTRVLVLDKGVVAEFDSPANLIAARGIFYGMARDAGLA
Sequence of ATP-binding cassette sub-family C member 2 (Q92887 whole entry): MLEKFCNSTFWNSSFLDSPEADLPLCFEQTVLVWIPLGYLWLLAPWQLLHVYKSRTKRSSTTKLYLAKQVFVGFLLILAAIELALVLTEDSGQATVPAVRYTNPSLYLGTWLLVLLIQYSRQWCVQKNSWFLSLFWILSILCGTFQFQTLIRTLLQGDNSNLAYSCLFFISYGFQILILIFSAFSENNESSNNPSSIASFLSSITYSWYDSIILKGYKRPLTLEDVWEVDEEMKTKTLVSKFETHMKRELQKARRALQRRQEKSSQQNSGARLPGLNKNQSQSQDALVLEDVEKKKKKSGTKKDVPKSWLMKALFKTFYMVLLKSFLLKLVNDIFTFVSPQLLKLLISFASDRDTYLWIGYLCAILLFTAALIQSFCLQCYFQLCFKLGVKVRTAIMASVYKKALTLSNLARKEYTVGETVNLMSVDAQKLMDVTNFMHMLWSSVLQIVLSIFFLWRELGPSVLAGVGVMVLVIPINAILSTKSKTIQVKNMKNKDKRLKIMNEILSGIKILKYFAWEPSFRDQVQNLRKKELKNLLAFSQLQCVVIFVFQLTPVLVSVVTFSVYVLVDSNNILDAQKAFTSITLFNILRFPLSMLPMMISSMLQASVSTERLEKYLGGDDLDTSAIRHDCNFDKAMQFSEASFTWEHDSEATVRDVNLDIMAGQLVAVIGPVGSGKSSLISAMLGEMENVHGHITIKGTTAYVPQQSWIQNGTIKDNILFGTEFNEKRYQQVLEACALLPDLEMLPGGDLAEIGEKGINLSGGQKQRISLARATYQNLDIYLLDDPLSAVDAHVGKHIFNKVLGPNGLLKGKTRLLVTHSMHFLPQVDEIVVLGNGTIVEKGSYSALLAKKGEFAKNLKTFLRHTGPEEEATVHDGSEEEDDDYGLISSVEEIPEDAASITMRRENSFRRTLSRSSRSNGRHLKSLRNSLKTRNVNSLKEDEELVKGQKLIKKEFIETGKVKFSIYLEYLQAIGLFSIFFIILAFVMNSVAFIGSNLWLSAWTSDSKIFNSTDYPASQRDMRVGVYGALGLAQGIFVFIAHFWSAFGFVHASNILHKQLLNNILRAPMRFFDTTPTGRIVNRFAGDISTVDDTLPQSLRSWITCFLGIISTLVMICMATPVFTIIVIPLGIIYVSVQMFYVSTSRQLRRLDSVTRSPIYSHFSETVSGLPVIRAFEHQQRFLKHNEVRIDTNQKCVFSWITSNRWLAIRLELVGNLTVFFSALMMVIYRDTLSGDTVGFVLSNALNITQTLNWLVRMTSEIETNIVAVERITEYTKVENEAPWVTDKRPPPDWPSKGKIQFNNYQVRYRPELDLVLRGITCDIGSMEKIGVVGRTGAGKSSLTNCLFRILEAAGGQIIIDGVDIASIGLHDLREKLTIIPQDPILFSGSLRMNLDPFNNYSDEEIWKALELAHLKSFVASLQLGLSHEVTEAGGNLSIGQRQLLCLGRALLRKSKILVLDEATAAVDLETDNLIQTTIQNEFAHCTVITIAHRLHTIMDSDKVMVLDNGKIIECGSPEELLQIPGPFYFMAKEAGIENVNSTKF

The IC50 is the point on the concentration scale where inhibition reaches its midpoint. For the compound `CCOc1ccc(C[C@H]2NC(=O)CCSSC[C@@H](C(=O)N3CCC[C@H]3C(=O)N[C@@H](CCCN)C(=O)NCC(N)=O)NC(=O)[C@H](CC(N)=O)NC(=O)[C@H]([C@@H](C)O)NC(=O)[C@H]([C@@H](C)CC)NC2=O)cc1` [ATOSIBAN] ([Mpa][dY](Et)ITNCP[Orn]G-NH2; disulfide 1-6), the IC50 (in experiment [1]; in experiment [2]; in experiment [3]; on Bile salt export pump) was greater than 133 µM throughout.

As for `COc1ccc(CC2c3cc(OC)c(OC)cc3CC[N+]2(C)CCC(=O)OCCCCCOC(=O)CC[N+]2(C)CCc3cc(OC)c(OC)cc3C2Cc2ccc(OC)c(OC)c2)cc1OC` (stereo not given) [ATRACURIUM BESYLATE], the IC50 (in experiment [1]; in experiment [2]; in experiment [3]; at Bile salt export pump) was greater than 133 µM each time.

As to `CC[C@H]1OC(=O)[C@H](C)[C@@H](O[C@H]2C[C@@](C)(OC)[C@@H](O)[C@H](C)O2)[C@H](C)[C@@H](O[C@@H]2O[C@H](C)C[C@H](N(C)C)[C@H]2O)[C@](C)(O)C[C@@H](C)CN(C)[C@H](C)[C@@H](O)[C@]1(C)O` [AZITHROMYCIN], the IC50 (in experiment [1]; in experiment [2]; in experiment [3]; on Bile salt export pump) was greater than 133 µM each time.

In the case of `CC1(C)S[C@@H]2[C@H](NC(=O)[C@H](NC(=O)N3CCNC3=O)c3ccccc3)C(=O)N2[C@H]1C(=O)O` [AZLOCILLIN SODIUM], the IC50 (in experiment [1]; in experiment [2]; in experiment [3]; on Bile salt export pump) was greater than 133 µM throughout.

Take `NCC(CC(=O)O)c1ccc(Cl)cc1` (stereo not given) [BACLOFEN]: the IC50 (in experiment [1]; in experiment [2]; in experiment [3]; on Bile salt export pump) was greater than 133 µM throughout.

In the case of `O=C(Cn1ccnc1[N+](=O)[O-])NCc1ccccc1` [BENZNIDAZOLE], the IC50 (in experiment [1]; in experiment [2]; in experiment [3]; on Bile salt export pump) was greater than 133 µM in each case.

`CCOC(=O)c1ccc(N)cc1` [BENZOCAINE]: the IC50 (in experiment [1]; in experiment [2]; in experiment [3]; on Bile salt export pump) was greater than 133 µM in each case.

For the compound `C[C@H]1C[C@H]2[C@@H]3CCC4=CC(=O)C=C[C@]4(C)[C@@]3(F)[C@@H](O)C[C@]2(C)[C@@]1(O)C(=O)CO` [BETAMETHASONE], the IC50 (in experiment [1]; in experiment [2]; in experiment [3]; on Bile salt export pump) was greater than 133 µM throughout.

In the case of `O=C(O)CCNC(=O)c1ccccc1` [BETAMIPRON], the IC50 (in experiment [1]; in experiment [2]; in experiment [3]; on Bile salt export pump) was greater than 133 µM each time.

Consider `c1ccc(-c2ccc(C(c3ccccc3)n3ccnc3)cc2)cc1` (stereo not given) [BIFONAZOLE], for which the IC50 is greater than 133 µM in experiment [1], greater than 133 µM in experiment [2], greater than 133 µM in experiment [3] and 27.1 µM at Bile salt export pump.

For `CC(=O)Oc1ccc(C(c2ccc(OC(C)=O)cc2)c2ccccn2)cc1` [BISACODYL], the IC50 (in experiment [1]; in experiment [2]; in experiment [3]; on Bile salt export pump) was greater than 133 µM each time.

Take `CC(C)NCC(O)COc1ccc(COCCOC(C)C)cc1` (stereo not given) [BISOPROLOL FUMARATE]: the half-inhibitory concentration (IC50) (in experiment [1]; in experiment [2]; in experiment [3]; at Bile salt export pump) was greater than 133 µM each time.

For `CC(C)C[C@H](NC(=O)[C@H](Cc1ccccc1)NC(=O)c1cnccn1)B(O)O` [BORTEZOMIB], the half-maximal inhibitory concentration (IC50) (in experiment [1]; in experiment [2]; in experiment [3]; on Bile salt export pump) was greater than 133 µM throughout.

Turning to `CCN[C@H]1CN(CCCOC)S(=O)(=O)c2sc(S(N)(=O)=O)cc21` [BRINZOLAMIDE], the 50% inhibitory concentration (IC50) (in experiment [1]; in experiment [2]; in experiment [3]; on Bile salt export pump) was greater than 133 µM throughout.

Turning to `CCN(CC)CCNC(=O)c1cc(Br)c(N)cc1OC` [BROMOPRIDE], the IC50 (in experiment [1]; in experiment [2]; in experiment [3]; on Bile salt export pump) was greater than 133 µM in each case.

Values taken from ChEMBL document CHEMBL4028801, “A multifactorial approach to hepatobiliary transporter assessment enables improved therapeutic compound development” (Toxicol Sci, 2013).
